Patent publication US10308659B2, “Pyridine derivatives” (Hoffmann-La Roche Inc., priority 2013, dated 2019)
Read-outs that look alike come from different tables or passages of the source.

What was measured:
human CB1 receptors = human CB1 receptors (Homo sapiens (Human), UniProt P21554); assay: cAMP assay, CHO cells expressing human CB1 receptors; format: cell-based
Outline: (§1)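 Transfected CHO cells were preincubated in Krebs Ringer bicarbonate buffer with 1 mM IBMX for 30 min at 30 °C, then exposed to compound for 30 min at 30 °C. cAMP was measured by time-resolved FRET (730/645 nm) against a standard curve spanning 10 μM to 0.13 nM. EC50 values derived from concentration–response data.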

human CB2 receptors = human CB2 receptors (Homo sapiens (Human), UniProt P34972); assay: cAMP assay, CHO cells expressing human CB2 receptors; format: cell-based
Chain of human CB2 receptors (P34972 whole entry): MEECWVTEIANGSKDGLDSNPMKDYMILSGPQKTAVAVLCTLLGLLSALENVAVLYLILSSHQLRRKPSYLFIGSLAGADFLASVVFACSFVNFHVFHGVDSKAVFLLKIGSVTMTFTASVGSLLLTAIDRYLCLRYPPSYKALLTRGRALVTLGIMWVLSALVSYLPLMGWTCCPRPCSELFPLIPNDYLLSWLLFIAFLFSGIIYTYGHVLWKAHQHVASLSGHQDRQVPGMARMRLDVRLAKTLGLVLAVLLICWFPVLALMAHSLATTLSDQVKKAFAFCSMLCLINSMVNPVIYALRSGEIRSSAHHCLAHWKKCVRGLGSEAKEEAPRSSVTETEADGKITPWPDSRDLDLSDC
Outline: as §1

[1] = functional cAMP assay, CHO cells expressing human CB1, read-out: EC50 CB1 human
[2] = functional cAMP assay, CHO cells expressing human CB2, read-out: EC50 CB2 human

Chain of human CB1 receptors (P21554 whole entry): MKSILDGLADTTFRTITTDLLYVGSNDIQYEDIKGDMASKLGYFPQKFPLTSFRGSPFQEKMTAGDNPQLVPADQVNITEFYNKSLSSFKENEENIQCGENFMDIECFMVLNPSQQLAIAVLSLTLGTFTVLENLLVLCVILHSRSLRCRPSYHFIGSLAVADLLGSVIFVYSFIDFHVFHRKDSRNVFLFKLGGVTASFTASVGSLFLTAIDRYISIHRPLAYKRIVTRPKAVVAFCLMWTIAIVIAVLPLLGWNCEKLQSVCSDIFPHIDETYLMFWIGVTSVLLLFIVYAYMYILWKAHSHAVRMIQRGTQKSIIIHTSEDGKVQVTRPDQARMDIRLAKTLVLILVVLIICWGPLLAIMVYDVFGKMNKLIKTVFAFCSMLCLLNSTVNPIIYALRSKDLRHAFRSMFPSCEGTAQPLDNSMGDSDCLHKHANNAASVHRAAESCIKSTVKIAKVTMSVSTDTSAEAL

Row | Compound | EC50 (human CB1 receptors; [1]) | EC50 (human CB2 receptors; [2]) | EC50 (human CB1 receptors) | EC50 (human CB2 receptors)
1 | COC(C)CCOc1cc(-c2noc(C(C)(C)C)n2)ncc1C1CC1 (stereo not drawn) [Example 89, 5-tert-butyl-3-[5-cyclopropyl-4-(3-methoxybutoxy)pyridin-2-yl]-1,2,4-oxadiazole] | > 10000 nM | 16.2 nM | – | –
2 | C[C@@H](Oc1cc(-c2nc(C(C)(C)C)no2)ncc1C1CC1)C(F)(F)F [Example 51, 3-tert-butyl-5-[5-cyclopropyl-4-[(2R)-1,1,1-trifluoropropan-2-yl]oxypyridin-2-yl]-1,2,4-oxadiazole] | > 10000 nM | 61.8 nM | – | –
3 | c1c(-c2noc(C3CC3)n2)ncc(C2CC2)c1OCC1CC1 [Example 9, 5-cyclopropyl-3-[5-cyclopropyl-4-(cyclopropylmethoxy)pyridin-2-yl]-1,2,4-oxadiazole] | – | – | > 10000 nM | 15.8 nM
4 | CC(C)c1nc(-c2cc(OCC3CC3)c(C3CC3)cn2)no1 [Example 14, 3-[5-cyclopropyl-4-(cyclopropylmethoxy)pyridin-2-yl]-5-propan-2-yl-1,2,4-oxadiazole] | > 10000 nM | 3.7 nM | – | –
5 | CC(C)(C)c1nc(-c2cc(Oc3ccc(S(C)(=O)=O)cc3)c(C3CC3)cn2)no1 [Example 75, 5-tert-butyl-3-[5-cyclopropyl-4-(4-methylsulfonylphenoxy)pyridin-2-yl]-1,2,4-oxadiazole] | > 10000 nM | 288 nM | – | –
6 | CC(C)(C)c1noc(-c2cc(OC3CCOCC3)c(C3CC3)cn2)n1 [Example 121, 3-tert-butyl-5-(5-cyclopropyl-4-(tetrahydro-2H-pyran-4-yloxy)pyridin-2-yl)-1,2,4-oxadiazole] | > 10000 nM | 1 nM | – | –
7 | CC(C)c1nc(-c2cc(OCC(F)(F)F)c(N3CC(F)(F)C3)cn2)no1 [Example 45, 3-[5-(3,3-difluoroazetidin-1-yl)-4-(2,2,2-trifluoroethoxy)pyridin-2-yl]-5-propan-2-yl-1,2,4-oxadiazole] | > 10000 nM | 77.8 nM | – | –
8 | CC(C)(C)c1nc(-c2cc(OCC3CCO3)c(C3CC3)cn2)no1 (stereo not drawn) [Example 58, 5-tert-butyl-3-[5-cyclopropyl-4-(oxetan-2-ylmethoxy)pyridin-2-yl]-1,2,4-oxadiazole] | > 10000 nM | 15.6 nM | – | –
9 | CC(C)(C)c1nc(-c2cc(OC3CCOC3)c(C3CC3)cn2)no1 (stereo not drawn) [Example 62, 5-tert-butyl-3-[5-cyclopropyl-4-(oxolan-3-yloxy)pyridin-2-yl]-1,2,4-oxadiazole] | > 10000 nM | 17.8 nM | – | –
10 | C[C@@H](Oc1cc(-c2noc(C(C)(C)C)n2)ncc1C1CC1)C(F)(F)F [Example 49, 5-tert-butyl-3-[5-cyclopropyl-4-[(2R)-1,1,1-trifluoropropan-2-yl]oxypyridin-2-yl]-1,2,4-oxadiazole] | > 10000 nM | 51.5 nM | – | –
11 | FC(F)(F)COc1cc(-c2nc(C3CC3)no2)ncc1N1CC(F)(F)C1 [Example 15, 3-cyclopropyl-5-[5-(3,3-difluoroazetidin-1-yl)-4-(2,2,2-trifluoroethoxy)pyridin-2-yl]-1,2,4-oxadiazole] | > 10000 nM | 19.8 nM | – | –
12 | c1ccc(Cc2noc(-c3cc(OCC4CC4)c(C4CC4)cn3)n2)cc1 [Example 5, 3-benzyl-5-[5-cyclopropyl-4-(cyclopropylmethoxy)pyridin-2-yl]-1,2,4-oxadiazole] | > 10000 nM | 69.1 nM | – | –
13 | CC(C)(C)c1nc(-c2cc(N3CCC(F)(F)C3)c(C3CC3)cn2)no1 [Example 77, 5-tert-butyl-3-[5-cyclopropyl-4-(3,3-difluoropyrrolidin-1-yl)pyridin-2-yl]-1,2,4-oxadiazole] | > 10000 nM | 2.1 nM | – | –
14 | CC(C)c1nc(-c2cc(OCC(F)(F)F)c(C3CC3)cn2)no1 [Example 36, 3-[5-cyclopropyl-4-(2,2,2-trifluoroethoxy)pyridin-2-yl]-5-propan-2-yl-1,2,4-oxadiazole] | > 10000 nM | 20.9 nM | – | –
15 | CC(C)(C)c1nc(-c2cc(Oc3ccc(F)cc3)c(C3CC3)cn2)no1 [Example 61, 5-tert-butyl-3-[5-cyclopropyl-4-(4-fluorophenoxy)pyridin-2-yl]-1,2,4-oxadiazole] | > 10000 nM | 6.2 nM | – | –
